By AC50 is commonly meant the concentration at which the activity in the assay is half-maximal.

This is an account of results in patent publication US20250171437A1 (Agios Pharmaceuticals,Inc., priority 2022, published 2025).

The first assay has as its target T1, human PAH with the R408W mutation (A375 R408W cells) (Homo sapiens, UniProt P00439, R408W).
T1 construct: expressed in transfected cells
T1 sequence (P00439 1-452 R408W): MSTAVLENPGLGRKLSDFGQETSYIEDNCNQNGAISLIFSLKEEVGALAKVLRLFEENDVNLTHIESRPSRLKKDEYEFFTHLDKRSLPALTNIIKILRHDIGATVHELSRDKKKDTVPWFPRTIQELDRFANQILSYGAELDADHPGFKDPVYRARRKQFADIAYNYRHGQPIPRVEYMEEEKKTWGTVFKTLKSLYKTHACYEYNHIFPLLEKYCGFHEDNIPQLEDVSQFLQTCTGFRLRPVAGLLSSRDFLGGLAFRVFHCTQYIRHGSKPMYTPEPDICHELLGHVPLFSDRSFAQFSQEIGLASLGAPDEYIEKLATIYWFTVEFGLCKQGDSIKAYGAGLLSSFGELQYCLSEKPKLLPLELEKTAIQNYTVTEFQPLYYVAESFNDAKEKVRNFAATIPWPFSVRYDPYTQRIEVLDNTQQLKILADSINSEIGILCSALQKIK
The assay is described as follows: Cell Based Phenylalanine Flux Assay. As to conditions: A375 R408W cells; 24 hrs with compound, then 20 μM sepiapterin and 800 μM 13C9,15N-Phenylalanine for 4 hours; 13C-Tyrosine by LC-MS; average where tested multiple times. The gist of the method:
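A375 cells stably expressing human PAH R408W treated 24 h at 37° C with a 10-point 2-fold dose curve in duplicate, 0.5% DMSO. Then 20 μM sepiapterin and 800 μM 13C9,15N-Phe added for 4 h; 13C-Tyr in media measured by LC-MS to give AC50.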
In the case of `Cc1nc(-c2ccccn2)oc1C(=O)N1CCc2[nH]cnc2[C@H]1c1nc2cc(F)ccc2o1` [Example 31, (S)-(4-(5-fluorobenzo[d]oxazol-2-yl)-6,7-dihydro-1H-imidazo[4,5-c]pyridin-5(4H)-yl)(4-methyl-2-(pyridin-2-yl)oxazol-5-yl)methanone], the half-maximal activity concentration (AC50) lay in the range of 500 to 1000 nM. Consider `O=C(c1ccnn1C(F)F)N1CCc2[nH]cnc2[C@@H]1c1nc2c(F)cc(F)cc2o1` [Example 490, (R)-(4-(4,6-difluorobenzo[d]oxazol-2-yl)-6,7-dihydro-1H-imidazo[4,5-c]pyridin-5(4H)-yl)(1-(difluoromethyl)-1H-pyrazol-5-yl)methanone], for which the AC50 is 1000 to 5000 nM.

For `O=C(c1oc(-c2ccccn2)nc1C(F)F)N1CCc2[nH]cnc2[C@H]1c1nc2ccccc2o1` [Example 740, (S)-(4-(benzo[d]oxazol-2-yl)-6,7-dihydro-1H-imidazo[4,5-c]pyridin-5(4H)-yl)(4-(difluoromethyl)-2-(pyridin-2-yl)oxazol-5-yl)methanone], the concentration at half-maximal activity (AC50) was no more than 500 nM.

Take `O=C(c1ocnc1C(F)(F)F)N1CCc2[nH]cnc2[C@H]1c1nc2cc(F)ccc2o1` [Example 23, (S)-(4-(5-fluorobenzo[d]oxazol-2-yl)-6,7-dihydro-1H-imidazo[4,5-c]pyridin-5(4H)-yl)(4-(trifluoromethyl)oxazol-5-yl)methanone]: the half-maximal activity concentration (AC50) was no more than 500 nM. Consider `Cn1cc(-c2ccc3c(C(=O)N4CCc5[nH]cnc5[C@H]4c4nc5c(F)cccc5o4)cnn3c2)cn1` [Example 541, (S)-(4-(4-fluorobenzo[d]oxazol-2-yl)-6,7-dihydro-1H-imidazo[4,5-c]pyridin-5(4H)-yl)(6-(1-methyl-1H-pyrazol-4-yl)pyrazolo[1,5-a]pyridin-3-yl)methanone], for which the AC50 is no more than 500 nM. Turning to `Cc1ccc2nc([C@@H]3c4nc[nH]c4CCN3C(=O)c3oc(C(C)(C)O)nc3C)oc2c1` [Example 319, (S)-(2-(2-hydroxypropan-2-yl)-4-methyloxazol-5-yl)(4-(6-methylbenzo[d]oxazol-2-yl)-6,7-dihydro-1H-imidazo[4,5-c]pyridin-5(4H)-yl)methanone], the concentration at half-maximal activity (AC50) lay in the range of 500 to 1000 nM. With `CC(C)(CO)c1nc(C(F)F)c(C(=O)N2CCc3[nH]cnc3[C@@H]2c2nc3cc(F)ccc3o2)o1` [Example 823, (R)-(4-(difluoromethyl)-2-(1-hydroxy-2-methylpropan-2-yl)oxazol-5-yl)(4-(5-fluorobenzo[d]oxazol-2-yl)-6,7-dihydro-1H-imidazo[4,5-c]pyridin-5(4H)-yl)methanone], the AC50 lay within 1000 to 5000 nM. As to `Cn1cc(-c2nc(C(F)F)c(C(=O)N3CCc4[nH]cnc4[C@H]3c3nc4cc(F)ccc4o3)o2)cn1` [Example 88, (S)-(4-(difluoromethyl)-2-(1-methyl-1H-pyrazol-4-yl)oxazol-5-yl)(4-(5-fluorobenzo[d]oxazol-2-yl)-6,7-dihydro-1H-imidazo[4,5-c]pyridin-5(4H)-yl)methanone], the AC50 lay in the range of 500 to 1000 nM.

The same assay, now with this note: A375 cells expressing R408W PAH; 24 hrs with compound, then 20 μM sepiapterin and 800 μM 13C9,15N-Phenylalanine for 4 hours; 13C-Tyrosine by LC-MS; average where tested multiple times.
On to `Cc1cc(-c2nnc(C(=O)N3CCc4[nH]cnc4C3c3nc4cc(F)ccc4o3)o2)nn1C` (stereo not shown), for which the half-maximal activity concentration (AC50) was in the range of 1000 to 5000 nM. As to `O=C(c1cnn2cc(OCCn3cccn3)ccc12)N1CCc2[nH]cnc2C1c1nc2cc(F)ccc2o1` (stereo not shown), the half-maximal activity concentration (AC50) is no less than 5000 nM.

On to `COCCOc1ccc2c(C(=O)N3CCc4[nH]cnc4C3c3nc4cc(F)ccc4o3)cnn2c1` (stereo not shown), for which the AC50 lay within 1000 to 5000 nM. As to `CC(C)(O)c1nnc(C(=O)N2CCc3[nH]cnc3C2c2nc3cc(F)ccc3o2)o1` (stereo not shown), the AC50 was in the range of 1000 to 5000 nM. Same read-out and setting: the result for `Cn1nc(C(C)(C)O)nc1C(=O)N1CCc2[nH]cnc2C1c1nc2cccc(F)c2o1` (stereo not shown) reads 1000 to 5000 nM; that for `Cc1nc(CN(C)C)oc1C(=O)N1CCc2[nH]cnc2C1c1nc2cc(F)ccc2o1` (stereo not shown), no less than 5000 nM; that for `Cn1ncnc1C(=O)N1CCc2[nH]cnc2C1c1nc2cccc(F)c2o1` (stereo not shown), 1000 to 5000 nM. Same read-out and setting: next, `Cn1nc(C(C)(C)C)nc1C(=O)N1CCc2[nH]cnc2C1c1nc2cccc(F)c2o1` (stereo not shown): 1000 to 5000 nM.
